Patent US7446199B2, “Compositions useful as inhibitors of protein kinases” (Vertex Pharmaceuticals Incorporated, priority 2003, dated 2008)

Legend:
[1] = target: T1, FLT-3 (Homo sapiens, UniProt P36888); assay: Inhibition of FLT-3, radiometric filter-binding assay; assay type: biochemical; settings: 90 μM ATP, 0.5 mg/mL pE4Y, room temperature
T1 construct: 0.02% BSA and 3 nM FLT-3
T1 sequence (P36888 27-993): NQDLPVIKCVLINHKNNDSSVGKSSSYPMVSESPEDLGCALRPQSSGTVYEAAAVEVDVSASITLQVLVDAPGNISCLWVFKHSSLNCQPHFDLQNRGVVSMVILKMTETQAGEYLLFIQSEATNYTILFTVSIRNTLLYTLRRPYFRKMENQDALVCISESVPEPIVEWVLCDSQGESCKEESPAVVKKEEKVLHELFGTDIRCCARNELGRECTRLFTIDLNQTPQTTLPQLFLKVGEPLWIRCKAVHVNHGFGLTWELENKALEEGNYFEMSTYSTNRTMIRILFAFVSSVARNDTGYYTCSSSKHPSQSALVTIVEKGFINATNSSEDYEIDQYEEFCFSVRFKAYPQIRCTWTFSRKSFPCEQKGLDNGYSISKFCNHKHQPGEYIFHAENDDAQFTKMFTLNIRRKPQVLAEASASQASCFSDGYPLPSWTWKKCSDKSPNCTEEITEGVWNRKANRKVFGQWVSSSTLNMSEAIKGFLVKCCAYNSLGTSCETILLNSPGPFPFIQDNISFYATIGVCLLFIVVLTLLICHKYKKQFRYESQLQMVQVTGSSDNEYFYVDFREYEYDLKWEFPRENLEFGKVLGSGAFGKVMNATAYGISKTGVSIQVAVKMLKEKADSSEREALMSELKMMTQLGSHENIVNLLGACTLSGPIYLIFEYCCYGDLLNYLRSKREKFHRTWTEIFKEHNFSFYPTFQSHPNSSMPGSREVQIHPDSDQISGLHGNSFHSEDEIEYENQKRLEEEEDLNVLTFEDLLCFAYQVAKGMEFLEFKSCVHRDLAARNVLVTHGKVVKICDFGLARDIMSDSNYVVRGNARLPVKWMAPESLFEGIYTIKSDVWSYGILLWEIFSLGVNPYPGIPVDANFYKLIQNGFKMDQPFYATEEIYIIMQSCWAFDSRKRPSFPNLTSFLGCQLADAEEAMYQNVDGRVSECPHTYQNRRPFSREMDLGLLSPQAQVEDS
How it was run: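 Radiometric filter-binding assay of FLT-3 (3 nM in Solution 2; final conc not stated) phosphorylating poly(Glu,Tyr) 4:1 (0.5 mg/mL) with 90 μM ATP plus [γ-33P]ATP, in HEPES pH 7.5, MgCl2, NaCl, DTT, BSA, 2.5% DMSO. 12-point titration, typically 0.01–5 μM, 20 min at room temperature; TCA-stopped, filtered, scintillation-counted; IC50 or Ki fitted.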

[2] = target: GSK-3β, (AA 1-420) (Homo sapiens, UniProt P49841); assay: GSK-3 inhibition assay, coupled enzyme system; assay type: biochemical; settings: 20 μM ATP, 300 μM peptide, 20 nM GSK-3b, 30° C.; read-out: Ki values (GSK3)
GSK-3β, (AA 1-420), sequence (P49841 whole entry, the tested form may be a part): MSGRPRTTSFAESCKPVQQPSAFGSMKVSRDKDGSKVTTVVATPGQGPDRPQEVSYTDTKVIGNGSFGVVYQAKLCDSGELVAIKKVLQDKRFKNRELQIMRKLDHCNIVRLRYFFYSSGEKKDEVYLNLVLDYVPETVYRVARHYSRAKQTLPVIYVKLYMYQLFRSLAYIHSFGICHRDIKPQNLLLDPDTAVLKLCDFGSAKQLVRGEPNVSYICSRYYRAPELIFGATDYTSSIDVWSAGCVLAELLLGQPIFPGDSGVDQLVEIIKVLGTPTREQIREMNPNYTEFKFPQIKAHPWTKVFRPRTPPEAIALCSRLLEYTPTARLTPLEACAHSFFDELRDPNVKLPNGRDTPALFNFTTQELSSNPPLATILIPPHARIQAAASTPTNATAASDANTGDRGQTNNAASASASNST
How it was run: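 Pyruvate kinase/lactate dehydrogenase-coupled NADH assay with 20 nM enzyme, 20 μM ATP and 300 μM peptide in HEPES pH 7.5, 1.5% DMSO, 30° C. Compound (0.002–30 μM, 12-point) preincubated 10 min before ATP start; rates over 10 min gave Ki.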

Structure (SMILES)	Ki [1] [nM]	Ki [2] [nM]
CN1CCC(c2cnc3[nH]cc(-c4oncc4-c4cccc(F)c4F)c3c2)CC1 [Compound 60, 3-[4-(2,3-Difluoro-phenyl)-isoxazol-5-yl]-5-(1-methyl-piperidin-4-yl)-1H-pyrrolo[2,3-b]pyridine]	1000 to 12500	200 to 1000
Fc1ccc(-c2cnc3[nH]cc(-c4oncc4-c4cccc(F)c4F)c3c2)cn1 [Compound 69, 3-[4-(2,3-Difluoro-phenyl)-isoxazol-5-yl]-5-(6-fluoro-pyridin-3-yl)-1H-pyrrolo[2,3-b]pyridine]	200 to 1000	< 200
Fc1cccc(-c2cnoc2-c2c[nH]c3ncccc23)c1F [Compound 1, 3-[4-(2,3-Difluoro-phenyl)-isoxazol-5-yl]-1H-pyrrolo[2,3-b]pyridine]	200 to 1000	1000 to 12500
CS(=O)(=O)Nc1ccc(-c2cnc3[nH]cc(-c4oncc4-c4cccc(F)c4F)c3c2)cc1 [Compound 98, N-(4-{3-[4-(2,3-Difluoro-phenyl)-isoxazol-5-yl]-1H-pyrrolo[2,3-b]pyridin-5-yl}-phenyl)-methane sulfonamide]	< 200	< 200
Fc1cccc(-c2cnoc2-c2c[nH]c3ncc(-c4ccncc4)cc23)c1F [Compound 57, 3-[4-(2,3-Difluoro-phenyl)-isoxazol-5-yl]-5-pyridin-4-yl-1H-pyrrolo[2,3-b]pyridine]	< 200	200 to 1000
CN1CCCN(c2ccc(-c3cnc4[nH]cc(-c5nncn5-c5cccc(F)c5F)c4c3)cn2)CC1 [Compound 117, 3-[4-(2,3-Difluoro-phenyl)-4H-[1,2,4]triazol-3-yl]-5-[6-(4-methyl-[1,4]diazepan-1-yl)-pyridin-3-yl]-1H-pyrrolo [2,3-b]-pyridine]	200 to 1000	200 to 1000
CN(C)CCNc1ccc(-c2cnc3[nH]cc(-c4nncn4-c4cccc(F)c4F)c3c2)cn1 [Compound 119, N′-(5-{3-[4-(2,3-Difluoro-phenyl)-4H-[1,2,4]triazol-3-yl]-1H-pyrrolo[2,3-b]pyridin-5-yl}-pyridin-2-yl)-N,N-dimethyl-ethane-1,2-diamine]	200 to 1000	200 to 1000
CC(=O)Nc1cccc(-c2cnc3[nH]cc(-c4oncc4-c4cccc(F)c4F)c3c2)c1 [Compound 65, N-(3-{3-[4-(2,3-Difluoro-phenyl)-isoxazol-5-yl]-1H-pyrrolo[2,3-b]pyridin-5-yl}-phenyl)-acetamide]	< 200	200 to 1000
Nc1cccc(-c2cnc3[nH]cc(-c4oncc4-c4cccc(F)c4F)c3c2)c1 [Compound 86, 3-{3-[4-(2,3-Difluoro-phenyl)-isoxazol-5-yl]-1H-pyrrolo [2,3-b]pyridin-5-yl}-phenylamine]	< 200	< 200
Fc1cccc(-c2cnoc2-c2c[nH]c3ncc(-c4ccccc4)cc23)c1F [Compound 58, 3-[4-(2,3-Difluoro-phenyl)-isoxazol-5-yl]-5-phenyl-1H-pyrrolo[2,3-b]pyridine]	200 to 1000	200 to 1000
CN(C)Cc1ccc(-c2cnc3[nH]cc(-c4oncc4-c4cccc(F)c4F)c3c2)cc1 [Compound 91, (4-{3-[4-(2,3-Difluoro-phenyl)-isoxazol-5-yl]-1H-pyrrolo[2,3-b]pyridin-5-yl}-benzyl)-dimethyl-amine]	< 200	1000 to 12500
CN(C)Cc1ccc(-c2cnc3[nH]cc(-c4oncc4-c4cccc(F)c4F)c3c2)nc1 [Compound 84, (6-{3-[4-(2,3-Difluoro-phenyl)-isoxazol-5-yl]-1H-pyrrolo[2,3-b]pyridin-5-yl}-pyridin-3-ylmethyl)-dimethyl-amine]	< 200	200 to 1000
Nc1ccnc(-c2cnc3[nH]cc(-c4oncc4-c4cccc(F)c4F)c3c2)c1 [Compound 83, 2-{3-[4-(2,3-Difluoro-phenyl)-isoxazol-5-yl]-1H-pyrrolo [2,3-b]pyridin-5-yl}-pyridin-4-ylamine]	1000 to 12500	200 to 1000
Nc1ccc(-c2cnc3[nH]cc(-c4oncc4-c4cccc(F)c4F)c3c2)cc1 [Compound 90, 4-{3-[4-(2,3-Difluoro-phenyl)-isoxazol-5-yl]-1H-pyrrolo [2,3-b]pyridin-5-yl}-phenylamine]	< 200	< 200
Fc1cccc(-c2cnoc2-c2c[nH]c3ncc(-c4cncnc4)cc23)c1F [Compound 85, 3-[4-(2,3-Difluoro-phenyl)-isoxazol-5-yl]-5-pyrimidin-5-yl-1H-pyrrolo[2,3-b]pyridine]	200 to 1000	1000 to 12500
CN(C)Cc1cc(Cl)nc(-c2cnc3[nH]cc(-c4oncc4-c4cccc(F)c4F)c3c2)c1 [Compound 81, (2-Chloro-6-{3-[4-(2,3-difluoro-phenyl)-isoxazol-5-yl]-1H-pyrrolo[2,3-b]pyridin-5-yl}-pyridin-4-ylmethyl)-dimethyl-amine]	200 to 1000	200 to 1000

Next, values leading:

Ki [1] [nM]	Ki [2] [nM]	Structure (SMILES)
< 200	200 to 1000	COC(=O)c1cnc2[nH]cc(-c3oncc3-c3cccc(F)c3F)c2c1 [Compound 105, 3-[4-(2,3-Difluoro-phenyl)-isoxazol-5-yl]-1H-pyrrolo[2,3-b]pyridine-5-carboxylic acid methyl ester]
< 200	< 200	Fc1cccc(-c2cnoc2-c2c[nH]c3ncc(C4=CCC(N5CCOCC5)CC4)cc23)c1F (stereo not drawn) [Compound 139, 3-[4-(2,3-Difluoro-phenyl)-isoxazol-5-yl]-5-(4-morpholin-4-yl-cyclohex-1-enyl)-1H-pyrrolo[2,3-b]pyridine]
< 200	< 200	NC1CC=C(c2cnc3[nH]cc(-c4oncc4-c4cccc(F)c4F)c3c2)CC1 (stereo not drawn) [Compound 137, 4-{3-[4-(2,3-Difluoro-phenyl)-isoxazol-5-yl]-1H-pyrrolo [2,3-b]pyridin-5-yl}-cyclohex-3-enylamine]
< 200	< 200	CS(=O)(=O)NC1CC=C(c2cnc3[nH]cc(-c4oncc4-c4cccc(F)c4F)c3c2)CC1 (stereo not drawn) [Compound 140, N-(4-{3-[4-(2,3-Difluoro-phenyl)-isoxazol-5-yl]-1H-pyrrolo[2,3-b]pyridin-5-yl}-cyclohex-3-enyl)-methanesulfonamide]
1000 to 12500	1000 to 12500	CNc1ccc2c(-c3oncc3-c3cccc(F)c3F)c[nH]c2n1 [Compound 102, {3-[4-(2,3-Difluoro-phenyl)-isoxazol-5-yl]-1H-pyrrolo[2,3-b]pyridin-6-yl}-methyl-amine]
< 200	< 200	Fc1cccc(-c2cnoc2-c2c[nH]c3ncc(/C=C/n4cncn4)cc23)c1F [Compound 133, 3-[4-(2,3-Difluoro-phenyl)-isoxazol-5-yl]-5-(2-[1,2,4]triazol-1-yl-vinyl)-1H-pyrrolo[2,3-b]pyridine]
< 200	< 200	CN(C)C1CC=C(c2cnc3[nH]cc(-c4oncc4-c4cccc(F)c4F)c3c2)CC1 (stereo not drawn) [Compound 138, (4-{3-[4-(2,3-Difluoro-phenyl)-isoxazol-5-yl]-1H-pyrrolo[2,3-b]pyridin-5-yl}-cyclohex-3-enyl)-dimethyl-amine]
200 to 1000	200 to 1000	Oc1cnc2[nH]cc(-c3oncc3-c3cccc(F)c3F)c2c1 [Compound 43, 3-[4-(2,3-Difluoro-phenyl)-isoxazol-5-yl]-1H-pyrrolo[2,3-b]pyridin-5-ol]
< 200	1000 to 12500	Oc1cccc(-c2cnc3[nH]cc(-c4oncc4-c4cccc(F)c4F)c3c2)c1 [Compound 87, 3-{3-[4-(2,3-Difluoro-phenyl)-isoxazol-5-yl]-1H-pyrrolo [2,3-b]pyridin-5-yl}-phenol]
200 to 1000	200 to 1000	COc1ccnc(-c2cnc3[nH]cc(-c4oncc4-c4cccc(F)c4F)c3c2)c1 [Compound 78, 3-[4-(2,3-Difluoro-phenyl)-isoxazol-5-yl]-5-(4-methoxy-pyridin-2-yl)-1H-pyrrolo[2,3-b]pyridine]
200 to 1000	200 to 1000	C=Cc1cnc2[nH]cc(-c3oncc3-c3cccc(F)c3F)c2c1 [Compound 66, 3-[4-(2,3-Difluoro-phenyl)-isoxazol-5-yl]-5-vinyl-1H-pyrrolo[2,3-b]pyridine]
